Measurements as given in ChEMBL document CHEMBL5120960, “Unveiling the Structure-Activity Relationships at the Orthosteric Binding Site of P2X Ion Channels: The Route to Selectivity” (J Med Chem, 2022).

How the values were obtained:
Format in all cases: cell-based
P2X purinoceptor 7 [1] = target: T1, P2X purinoceptor 7 (Homo sapiens, UniProt Q99572); test: […] activity at human P2X7R expressed in HEK293 cells assessed as reduction in YO-PRO-1 iodide dye uptake preincubated for 30 mins followed by YO-PRO-1 iodide addition and measured after 2 hrs by fluorescence based multimode plate reader analysis
T1 sequence (Q99572 whole entry): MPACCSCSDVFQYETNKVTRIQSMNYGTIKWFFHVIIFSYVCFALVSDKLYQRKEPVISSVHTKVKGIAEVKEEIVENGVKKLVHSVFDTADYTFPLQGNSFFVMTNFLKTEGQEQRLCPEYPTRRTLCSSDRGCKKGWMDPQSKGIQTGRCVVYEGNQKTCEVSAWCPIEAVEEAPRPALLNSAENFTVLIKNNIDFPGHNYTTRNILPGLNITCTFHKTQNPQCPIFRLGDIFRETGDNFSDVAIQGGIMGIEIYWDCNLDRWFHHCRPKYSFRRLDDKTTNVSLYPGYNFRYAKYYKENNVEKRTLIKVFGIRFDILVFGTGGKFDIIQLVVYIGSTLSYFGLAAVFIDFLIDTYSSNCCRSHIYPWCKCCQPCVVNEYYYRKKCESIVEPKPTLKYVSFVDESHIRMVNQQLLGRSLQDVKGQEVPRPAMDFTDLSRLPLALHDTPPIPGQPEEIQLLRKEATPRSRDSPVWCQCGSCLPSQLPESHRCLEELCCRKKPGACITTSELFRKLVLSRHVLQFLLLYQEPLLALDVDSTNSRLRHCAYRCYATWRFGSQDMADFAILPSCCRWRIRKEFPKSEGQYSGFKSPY

P2X purinoceptor 3 [2] = target: T2, P2X purinoceptor 3 (Homo sapiens, UniProt P56373); test: […] activity at human P2X3R expressing CHO cells assessed as reduction in intracellular Ca2+ influx pretreated with Fluo-4 for 1 hr followed by compound addition and further incubated for 30 mins in presence of ATP by multimode plate reader analysis
T2 sequence (P56373 whole entry): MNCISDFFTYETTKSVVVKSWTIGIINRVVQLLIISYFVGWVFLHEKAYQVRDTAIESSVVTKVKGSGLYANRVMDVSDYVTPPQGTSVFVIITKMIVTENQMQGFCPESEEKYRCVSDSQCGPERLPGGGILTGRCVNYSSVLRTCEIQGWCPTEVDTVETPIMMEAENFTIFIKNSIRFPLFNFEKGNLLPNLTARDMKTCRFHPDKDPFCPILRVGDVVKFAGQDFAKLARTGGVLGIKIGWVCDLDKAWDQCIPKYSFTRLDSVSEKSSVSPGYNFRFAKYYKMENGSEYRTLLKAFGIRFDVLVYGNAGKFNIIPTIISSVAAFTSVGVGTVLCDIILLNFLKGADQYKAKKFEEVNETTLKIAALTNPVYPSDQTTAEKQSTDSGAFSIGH

P2X purinoceptor 1 [3] = target: T3, P2X purinoceptor 1 (Homo sapiens, UniProt P51575); test: […] activity at human P2X1R expressing CHO cells assessed as reduction in intracellular Ca2+ influx pretreated with Fluo-4 for 1 hr followed by compound addition and further incubated for 30 mins in presence of ATP by multimode plate reader analysis
T3 sequence (P51575 whole entry): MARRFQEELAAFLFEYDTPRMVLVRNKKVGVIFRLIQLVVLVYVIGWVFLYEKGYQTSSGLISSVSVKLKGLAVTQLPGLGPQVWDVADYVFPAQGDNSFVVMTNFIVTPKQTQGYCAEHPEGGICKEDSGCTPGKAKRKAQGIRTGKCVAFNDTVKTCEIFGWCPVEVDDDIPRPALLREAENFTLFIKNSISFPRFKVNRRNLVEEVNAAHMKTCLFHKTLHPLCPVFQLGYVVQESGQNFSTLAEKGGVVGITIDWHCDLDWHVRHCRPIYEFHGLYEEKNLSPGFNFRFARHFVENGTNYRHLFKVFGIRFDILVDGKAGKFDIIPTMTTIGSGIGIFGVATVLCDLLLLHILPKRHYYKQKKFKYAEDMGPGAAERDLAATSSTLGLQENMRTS

P2X purinoceptor 7 [4] = target: T1, P2X purinoceptor 7; test: […] activity at human P2X7R expressing HEK293 cells assessed as reduction in intracellular Ca2+ influx pretreated with Fluo-4 for 1 hr followed by compound addition and further incubated for 30 mins in presence of ATP by multimode plate reader analysis
P2X purinoceptor 2 [5] = target: T4, P2X purinoceptor 2 (Homo sapiens, UniProt Q9UBL9); test: […] activity at human P2X2R expressing CHO cells assessed as reduction in intracellular Ca2+ influx pretreated with Fluo-4 for 1 hr followed by compound addition and further incubated for 30 mins in presence of ATP by multimode plate reader analysis
T4 sequence (Q9UBL9 whole entry): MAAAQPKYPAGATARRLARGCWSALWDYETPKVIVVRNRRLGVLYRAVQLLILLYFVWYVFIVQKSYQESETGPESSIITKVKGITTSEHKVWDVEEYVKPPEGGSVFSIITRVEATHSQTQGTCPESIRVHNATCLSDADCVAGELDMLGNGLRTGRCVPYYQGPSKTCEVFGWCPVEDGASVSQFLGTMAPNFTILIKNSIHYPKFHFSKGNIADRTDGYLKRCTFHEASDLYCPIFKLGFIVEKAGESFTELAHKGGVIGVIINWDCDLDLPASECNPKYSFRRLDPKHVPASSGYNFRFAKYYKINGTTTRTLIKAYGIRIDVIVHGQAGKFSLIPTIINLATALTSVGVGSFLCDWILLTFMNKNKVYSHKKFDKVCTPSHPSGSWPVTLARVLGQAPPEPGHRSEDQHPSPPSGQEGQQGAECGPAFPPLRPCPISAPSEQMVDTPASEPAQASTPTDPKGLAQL

[6] = target: T5, P2X2/P2X3 heterotrimeric receptor (Homo sapiens, UniProt P56373+Q9UBL9); test: […] activity at human P2X2R/P2X3R expressing CHO cells assessed as reduction in intracellular Ca2+ influx pretreated with Fluo-4 for 1 hr followed by compound addition and further incubated for 30 mins in presence of ATP by multimode plate reader analysis
T5 sequence (Q9UBL9 whole entry): T4 sequence (Q9UBL9 whole entry)
T5 sequence (P56373 whole entry): T2 sequence (P56373 whole entry)

P2X purinoceptor 4 [7] = target: T6, P2X purinoceptor 4 (Homo sapiens, UniProt Q99571); test: […] activity at human P2X4R expressing HEK293 cells assessed as reduction in intracellular Ca2+ influx pretreated with Fluo-4 for 1 hr followed by compound addition and further incubated for 30 mins in presence of ATP by multimode plate reader analysis
T6 sequence (Q99571 whole entry): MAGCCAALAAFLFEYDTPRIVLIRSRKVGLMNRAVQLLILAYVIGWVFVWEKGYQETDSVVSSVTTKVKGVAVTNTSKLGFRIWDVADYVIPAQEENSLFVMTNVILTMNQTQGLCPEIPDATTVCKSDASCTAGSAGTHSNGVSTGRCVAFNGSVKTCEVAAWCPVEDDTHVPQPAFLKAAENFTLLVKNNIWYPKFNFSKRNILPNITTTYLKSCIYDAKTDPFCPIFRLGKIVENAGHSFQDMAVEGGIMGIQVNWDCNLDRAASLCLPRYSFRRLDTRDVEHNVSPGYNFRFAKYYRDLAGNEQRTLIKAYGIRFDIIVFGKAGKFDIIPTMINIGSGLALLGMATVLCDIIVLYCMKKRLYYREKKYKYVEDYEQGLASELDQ

P2X purinoceptor 3 [8] = target: T2, P2X purinoceptor 3; test: Antagonist activity at human P2X3R expressing CHO cells assessed as reduction in intracellular Ca2+ influx pretreated with Fluo-4 for 1 hr followed by compound addition and further incubated for 30 mins in presence of ATP by multimode plate reader analysis
[9] = target: T5, P2X2/P2X3 heterotrimeric receptor; test: Antagonist activity at human P2X2R/P2X3R expressing CHO cells assessed as reduction in intracellular Ca2+ influx pretreated with Fluo-4 for 1 hr followed by compound addition and further incubated for 30 mins in presence of ATP by multimode plate reader analysis
P2X purinoceptor 4 [10] = target: T6, P2X purinoceptor 4; test: Antagonist activity at human P2X4R expressing HEK293 cells assessed as reduction in intracellular Ca2+ influx pretreated with Fluo-4 for 1 hr followed by compound addition and further incubated for 30 mins in presence of ATP by multimode plate reader analysis
P2X purinoceptor 2 [11] = target: T4, P2X purinoceptor 2; test: Antagonist activity at human P2X2R expressing CHO cells assessed as reduction in intracellular Ca2+ influx pretreated with Fluo-4 for 1 hr followed by compound addition and further incubated for 30 mins in presence of ATP by multimode plate reader analysis
P2X purinoceptor 7 [12] = target: T1, P2X purinoceptor 7; test: Antagonist activity at human P2X7R expressing HEK293 cells assessed as reduction in intracellular Ca2+ influx pretreated with Fluo-4 for 1 hr followed by compound addition and further incubated for 30 mins in presence of ATP by multimode plate reader analysis
P2X purinoceptor 1 [13] = target: T3, P2X purinoceptor 1; test: Antagonist activity at human P2X1R expressing CHO cells assessed as reduction in intracellular Ca2+ influx pretreated with Fluo-4 for 1 hr followed by compound addition and further incubated for 30 mins in presence of ATP by multimode plate reader analysis

Row | Compound | IC50 (P2X purinoceptor 7 [1]) [µM] | IC50 (P2X purinoceptor 3 [2]) [µM] | IC50 (P2X purinoceptor 1 [3]) [µM] | IC50 (P2X purinoceptor 7 [4]) [µM] | IC50 (P2X purinoceptor 2 [5]) [µM] | IC50 [6] [µM] | IC50 (P2X purinoceptor 4 [7]) [µM] | IC50 (P2X purinoceptor 3 [8]) [µM] | IC50 [9] [µM] | IC50 (P2X purinoceptor 4 [10]) [µM] | IC50 (P2X purinoceptor 2 [11]) [µM] | IC50 (P2X purinoceptor 7 [12]) [µM] | IC50 (P2X purinoceptor 1 [13]) [µM]
1 | O=P(O)(O)OP(=O)(O)OP(=O)(O)OC[C@H]1O[C@@H](n2cnc3c(Nc4ccccc4)ncnc32)[C@H](O)[C@@H]1O | > 100 | 0.209 | > 100 | > 100 | 0.00372 | 0.158 | 0.891 |  |  |  |  |  | 
2 | COc1ccc(C(=O)O[C@@H]2[C@H](OC(=O)c3ccc(OC)cc3)[C@@H](COP(=O)(O)OP(=O)(O)OP(=O)(O)O)O[C@H]2n2cnc3c(N)ncnc32)cc1 | > 100 | > 100 | > 100 | > 100 | > 100 | > 100 | > 100 | > 100 | > 100 | > 100 | > 100 | > 100 | > 100
3 | CCCCNc1ncnc2c1ncn2[C@@H]1O[C@H](COP(=O)(O)OP(=O)(O)OP(=O)(O)O)[C@@H](O)[C@H]1O | > 100 | 30.2 | > 100 | > 100 | > 100 | 0.692 | > 100 |  |  |  |  |  | 
4 | O=P(O)(O)OP(=O)(O)OP(=O)(O)OC[C@H]1O[C@@H](n2cnc3c(Cl)ncnc32)[C@H](O)[C@@H]1O | > 100 | 0.741 | 0.00355 | > 100 | 0.0871 | 0.129 | > 100 |  |  |  |  |  | 
5 | Nc1ncnc2c1ncn2[C@@H]1O[C@H](COP(=O)(O)OP(=O)(O)OP(=O)(O)O)[C@@H](O)[C@H]1F | > 100 | 10.5 | > 100 | > 100 | 5.62 | 5.37 | 2.75 |  |  |  |  |  | 
6 | O=P(O)(O)OP(=O)(O)OP(=O)(O)OC[C@H]1O[C@@H](n2cnc3c2ncn2ccnc32)[C@H](O)[C@@H]1O | > 100 | 1 | > 100 | > 100 | 0.417 | 0.282 | > 100 |  |  |  |  |  | 
7 | O=P(O)(O)OP(=O)(O)OP(=O)(O)OC[C@H]1O[C@@H](n2cnc3c(S)ncnc32)[C@H](O)[C@@H]1O | > 100 | 1.51 | 1.51 | > 100 | > 100 | 0.00832 | > 100 |  |  |  |  |  | 
8 | CO[C@@H]1[C@H](O)[C@@H](COP(=O)(O)OP(=O)(O)OP(=O)(O)O)O[C@H]1n1cnc2c(N)ncnc21 | > 100 | > 100 | > 100 | > 100 | > 100 | > 100 | > 100 |  |  |  |  |  | 
